Measured values from patent US7547548B2, “Method for producing direct in vitro flowering and viable seed from cotyledon, radicle, and leaf explants, and plants produced therefrom” (University of Toledo, priority 2004, dated 2009).

Assays:
[1] = tested on: cotyledon; assay: Shoot, fertile flower and viable seed production from in vitro developed shoots from cotyledon; type: cell-based, soybean; details: BAP 3.0 mg/L without TDZ
Description: In this method, the isolated cotyledons from the germinated seed are plated on a cotyledon-shoot-flowering medium (which is another embodiment of the invention and is described below). A cotyledon-shoot flowering medium preferably comprises a cytokinin or mixtures thereof, such as BAP or combinations of cytokinins and a substituted phenylurea cytokinin analog such as TDZ or mixtures thereof. If desired, the cotyledon may be transformed at this time with any suitable technique known in the art. Preferably the abaxial side of the cotyledon is placed in contact with a cotyledon-shoot-flowering medium. Cultures are incubated at 24×2° C. under a 16/8-hour dark photoperiod provided by cool-white fluorescent lights at a quantum flux density of 30 μmol s^−1m^−2. Following a passage of time, typically, within four to six weeks, shoot initiation occurs on a cotyledon having been placed on a cotyledon-shoot-flowering medium. The shoot continues to grow and develop a flower bud within two to four weeks after shoot initiation. The explant is maintained on a cotyledon-shoot flowering medium for about 15 days and then transferred to MSB5 medium. Healthy soybean seeds are hand picked and washed with a few drops of soap (Linquinox, Fischer scientific, Pittsburgh, Pa.) for 10 minutes in running tap water. […]

[2] = tested on: cotyledonary explant; assay: Direct flower bud induction on cotyledon explants on MSB5 medium with growth regulators; type: cell-based, soybean
Description: Preferably before germination, the seeds are washed in running tap water with a drop of soap for 15 mins and sterilized with 70% ethyl alcohol for 1 min followed by a 10 minute treatment with 0.1% mercuric chloride and washed three times for 5 min intervals with sterile distilled water. Six seeds are germinated in each petriplate with MSB5 medium After germination on a MSB5 for a period of time, such as 3 days in the dark at 24±2° C., both the cotyledons are split and the radicle and embryo are removed. The isolated cotyledons from the seed are plated on cotyledon-flowering medium (which is another embodiment of the invention and is described in detail below). The cotyledon-flowering medium preferably comprises a substituted phenylurea cytokinin analog, such as TDZ and a cytokinin such as BAP.
If desired, the cotyledon may be transformed at this time with any suitable technique known in the art. Preferably the abaxial side of a cotyledon is placed in contact with a cotyledon-flowering medium. Cultures are incubated at 24±2° C. under a 16/8-hour […] photoperiod provided by cool-white fluorescent lights at a quantum flux density of 30 μmol s^−1m^−2.
Following a passage of time, typically within 3 weeks, flower bud initiation occurs on a cotyledon having been placed on a cotyledon-flowering medium. After about 3 weeks, cotyledons are transferred to MSB5 medium. The flower bud continues to grow on MSB5 medium to develop and produce viable seeds. During this time, cultures are incubated with necessary light-dark photoperiodic conditions to promote growth and to mimic natural growing conditions. Additionally, over time it may be necessary to subculture the explants with fresh MSB5 medium. See example 1 and FIGS, 1a-1d for direct viable-seed producing flower bud initiation on a soybean cotyledon.
Healthy soybean seeds are hand picked and washed with a few drops of soap (Linquinox, Fischer scientific, Pittsburgh, Pa.) for 10 minutes in running tap water. The seeds are then sterilized in 70% ethyl alcohol for 1 min and treated with 0.1% (w/v) mercuric chloride for 10 min. Sterilized seeds are again washed for three times at five minute intervals with sterilized distilled water, and plated six seed on each petri plate containing 20 ml of MSB5 medium. Three-day-old aseptic seedlings are used as the source material for explant preparation. Six isolated cotyledons are plated on each culture plate in such a way that the abaxial side in contact with the medium. MSB5 medium supplemented with different concentrations of TDZ (0.1, 0.5, 1.0, 2.0 and 5.0 mg/L) either alone, or in combination, with BAP (1.0-4.0 mg/L) are tested for flower induction. The media is augmented with 3% (w/v) sucrose and solidified with 0.56% agar (Phytotech Labs). The pH of the medium is adjusted to 5.8 with 0.1M NaOH or 0.1M HCl before autoclaving at 1.4 kg cm^−2 for 20 min at 121° C. The cultures are incubated in light-dark (16-8 hrs) photoperiodic conditions of cool-white-fluorescent light providing a quantum flux density of […] at 25±2° C. Explants with or without multiple flower buds are subcultured regularly at 20 days interval to fresh medium. Within 15 days of culture initiation, the bulging of cotyledons and induction of deep greenish unorganized structures from the proximal end is noticed.

[3] = tested on: Leaf segments from a petunia; assay: In vitro flowering from leaf explant of petunia; type: cell-based; details: MS basal medium, TDZ 0.1, 0.5, 1.0, 2.0 and 5.0 mg/L alone; 4 weeks
Description: Leaf segments from a petunia were sterilized using the sterilization procedures described above and placed on MS basal medium supplemented with different concentrations of TDZ (0.1, 0.5, 1.0, 2.0 and 5.0 mg/L) either alone or in combination with BAP (3.0 mg/L) or on a MS basal medium with no hormones. […] A large number of flowers were induced on MS basal medium. FIG. 7 is a photograph showing in vitro flowering in a petunia.

SMILES	frequency of shoots, fertile flowers and viable seeds [1]	developmental outcome produced by cotyledon explants ([2]; 3.0 mg/1 BAP)	flower bud induction [3]	flower induction and shoot induction ([2]; TDZ 5.0 mg/L)	flower production on cotyledonary explants ([2]; TDZ 1.0-2.0 mg/L without BAP)	number and frequency of flowers induced ([2]; TDZ below 1.0 mg/L)	appearance of induced flowers ([2]; medium containing only 1.0 to 2.0 mg/L TDZ)
c1ccc(CNc2ncnc3nc[nH]c23)cc1 [BAP, 6-benzylamino purine]	high frequency of shoots with low frequency of fertile flowers and viable seeds	only shoots	–	–	–	–	–
O=C(Nc1ccccc1)Nc1cnns1 [TDZ, 1-phenyl-3-(1,2,3-thiadiazol-5-yl)urea]	–	–	Multiple flower buds were induced	neither flower induction nor shoot induction was noticed	produces flowers on cotyledonary explants	fewer number of flowers and less frequently	short, vitrified and abnormal
